Molecules are shown by their SMILES.

For assay [1], the target named is T1, human recombinant ferrochelatase (Homo sapiens, UniProt P22830).
T1 construct: attached to the N terminal of the human FeCh Mature region (55th-423rd amino acid residues); Nus-Tag (N, cleaved yes); His-Tag (N, cleaved yes); made in house; host or cells: Escherichia coli BL21 (DE3)
T1 sequence (P22830 55-423): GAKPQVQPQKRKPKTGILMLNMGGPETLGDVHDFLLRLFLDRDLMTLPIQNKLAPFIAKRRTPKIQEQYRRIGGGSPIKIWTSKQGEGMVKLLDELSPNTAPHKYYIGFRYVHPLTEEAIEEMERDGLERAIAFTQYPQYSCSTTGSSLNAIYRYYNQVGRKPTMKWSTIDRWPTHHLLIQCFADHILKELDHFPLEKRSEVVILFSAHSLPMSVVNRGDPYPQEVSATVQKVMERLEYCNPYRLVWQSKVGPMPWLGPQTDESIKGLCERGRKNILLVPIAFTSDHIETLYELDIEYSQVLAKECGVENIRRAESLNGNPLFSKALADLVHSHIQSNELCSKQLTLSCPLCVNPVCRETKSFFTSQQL
As to the kind of experiment: Measurement of ferrochelatase activity (zinc-protoporphyrin IX production, fluorescence). It is filed as biochemical. Conditions: compound 3 μM, mean±SD, n=8, control group 0.377 ± 0.010. How it is done: Using human FeCh gene (Invitrogen) as a template, PCR was performed using the following primer 1 (SEQ ID NO: 3) and primer 2 (SEQ ID NO: 4). Pyrobest DNA polymerase (TAKARA SHUZO CO., LTD.) was used for the PCR, and extension reactions were performed under the conditions of (1) 95° C. 1 min, then (2) 30 cycles of 96° C. 15 sec, 60° C. 30 sec, 72° C. 90 sec, then (3) 72° C. for 7 min. After the reaction, the amplification product was inserted into pCR-Blunt II-TOPO (Invitrogen) and cloned. The obtained plasmid was digested with Bgl II and Xho I to recover inserted fragments. The fragments were inserted into the Bam HI/Xho I site of pET43.1a (Novagen) to give an expression vector pET43.1a-hFeCh encoding a protein with Nus-Tag and His-Tag attached to the N terminal of the human FeCh Mature region (55th-423rd amino acid residues).
The expression vector pET43.1a-hFeCh constructed in the above-mentioned A1 was introduced into Escherichia coli BL21 (DE3) Competent Cell (Stratagene) to give an expression strain. […]
The cells obtained in the above-mentioned A2 were suspended in Blue column Buffer (10 mM Tris-HCl (pH 8.1), 0.5 M NaCl, 10% Glycerol, 1% Triton X-100, 5 mM 2-Mercaptoethanol (2-ME), 250 ml) containing Protease Cocktail (Complete, EDTA-free; Roche). […] As a result of protein quantification (CBB method; Pierce), the total protein amount of about 8 mg of human FeCh was obtained. […]

The subject of assay [2] is ZDF rats. Description: Evaluation of anti-diabetic action in ZDF rat (blood glucose level). It is filed as in vivo. Conditions: male ZDF rat at 16 weeks of age; mixed diet 0.03% compound from 8 weeks of age (dose 20.9 mg/kg body weight); mean±SD; control group 652.8±23.10. How it is done:
Male ZDF rats (5-week-old, Charles River Japan) were reared while allowing free-feeding of both diet and water. As the feed, a standard laboratory diet (MF; Oriental Yeast Co, Tokyo, Japan) and a mixed diet (the aforementioned standard laboratory diet containing 0.03% of compound (a)) were used. After acclimation rearing for 1 week, the body weight and glycated hemoglobin were measured, and the ZDF rats were divided into 2 groups (8 rats/group) such that the measurement values became uniform at 8 weeks of age. For the control group, the aforementioned standard laboratory diet was given, and for the compound (a) administration group, the aforementioned mixed diet was given from 8 weeks of age to 19 weeks of age.
At 16 weeks of age, the food intake in 24 hr was measured. The rats were reared at 4 rats/cage, the total amount of decrease in the diet in a can set to each cage was divided by 4 and taken as the daily food intake per rat. In addition, the dose of compound (a) was calculated from the food intake and the content of compound (a) in the mixed diet.
At 16 weeks of age, moreover, the blood was drawn from the rat tail vein using heparin as an anticoagulant. The blood sample was preserved on ice, and the plasma after centrifugation was preserved at −20° C. until measurement. The blood glucose level was measured by a biochemical automatic analyzer (Beckman Coulter, Shyncron CX5Δ).

In assay [3] the test system is Crj: CD(SD)IGS rats. Description: Evaluation of hemoglobin increasing action. Type of assay: in vivo, rat. The settings on record: female Crj: CD(SD)IGS rats, 600 mg/kg/day oral, 4 weeks, mean±SD. How it is done:
(1) After acclimation rearing for 1 week, female Crj: CD(SD)IGS rats (5-week-old) were divided into 2 groups (10 rats/group). (2) For one group, a suspension of compound (a), obtained by suspending compound (a) in 0.5% aqueous methylcellulose solution, was orally administered at 10 ml/kg body weight/day (dose of compound (a): 600 mg/kg body weight/day) once a day. For the other group, 0.5% aqueous methylcellulose solution was orally administered at 10 ml/kg body weight/day in the same manner, and used as the control group. (3) After 4-week administration under free-feeding conditions, the rats were fasted for 20 hr, and the whole blood was collected from the abdominal artery into a blood collection vessel (SP-U0501EM, Sekisui Chemical), and the red blood cell count, hematocrit, hemoglobin concentration, and MCH (average red blood cell hemoglobin) of the rat blood were measured. The numerical values in the Table show mean±standard deviation.

Assay [4] relates to cytochrome c oxidase activity of high glucose-treated HepG2 cell. Description: Cytochrome c oxidase activity in high glucose treated HepG2 cell. Type of assay: cell-based, human. Conditions: compound 3 μM, 3 days, high glucose (4.5 g/L) HepG2, mean±SD, n=4. How it is done:
(1) Human liver cancer cell-derived cell line HepG2 was passaged in low glucose (1 g/L) Eagle Modified Dulbecco's Medium supplemented with 10% fetal bovine serum. The cells adjusted to 3×10^5/mL using the same medium were plated on a 96 well plate and precultured overnight. The aforementioned medium was changed to high glucose (4.5 g/L) Eagle Modified Dulbecco's Medium supplemented with 5 μg/mL transferrin, compound (a) or compound (l) was added and the cell culture was continued for 3 days. The same experiment was performed without using compound (a) and compound (l) as the control group. […] (3) The DNA content was measured using PicoGreen dsDNA Quantitation Kit (Molecular Probes P-7589), and used as an index of cell number. The cytochrome c oxidase activity was determined using the Cytochrome c oxidase Assay kit (Sigma CYTOC-OX1) modified to fit a 96 well plate protocol. […] The time-course changes in the absorbance were measured by determining the absorbance at 550 nm at a delta soft kinetic mode once in 15 sec for 6 min from immediately after the start of the reaction. The cytochrome c oxidase activity was calculated as an absorbance change rate in 5 min from 1 to 6 min. […]

The subject of assay [5] is Wistar Fatty rats. As to the kind of experiment: Evaluation of anti-diabetic action in Wistar Fatty rats (glycosylated hemoglobin). Type of assay: in vivo, rat. The settings on record: male Wistar Fatty rats, mean±SD, n=5-6. On the procedure: Lean rats in the same lot as the male Wistar Fatty rats (26 to 27-week-old; TAKEDA RABICS, lot0402) were used. Blood samples were collected from Wistar Fatty rats in the morning under non-fasting, and glycosylated hemoglobin % value (GHB %) and plasma component were measured. GHB % was measured by Tosoh automatic glycohemoglobin analyzer HLC-723 GHbV Alc2.2. The Plasma component was measured by Beckman Synchron system CX5 delta. The rats showing a GHB % value of not less than 7.5% and a high PG value were divided into 2 groups. For one group, a suspension of compound (1), obtained by suspending compound (l) in 0.5% aqueous methylcellulose solution, (dose of compound (l): 10 mg/kg body weight) was orally administered repeatedly once a day for 20 days. For the other group, 0.5% aqueous methylcellulose solution was orally administered in the same manner, and used as the control group. On the day of completion of the administration, the blood samples were collected again, and GHB % was measured. The numerical values in the Table show mean±standard deviation of n=5-6 (n is the number of rats).

For the compound `CCOP(=O)(OCC)OCc1ccc(NC(=O)/C=C/c2cnn(C)c2-c2ccc(F)cc2)cc1` [compound (a), diethyl [4-({(2E)-3-[5-(4-fluorophenyl)-1-methyl-1H-pyrazol-4-yl]prop-2-enoyl}amino)benzyl]phosphate], the ferrochelatase activity in assay [1] came to 0.609 ± 0.008 Em 590 nm. In addition, in assay [2], the blood glucose level was determined as 271.7 ± 36.5 mg/dL. In assay [3] (control group 15.3 ± 0.4), this compound registered a hemoglobin of 16.1 ± 0.7 g/dL. For the same compound, in assay [3] (control group 19.6 ± 0.4), the “MCH (average red blood cell hemoglobin)” value came to 20.7 ± 0.5 pg. Besides, the hematocrit in assay [3] (control group 42.5 ± 1.1) was determined as 44.7 ± 1.9 %. Also, the “red blood cell count” value in assay [3] (control group 777 ± 21) was 779 ± 32 ×10^4/μl. The “Cytochrome c oxidase activity” value in assay [4] (Table 5, control group 0.649 ± 0.044) turned out to be 0.757 ± 0.029 units/μg DNA.
Consider `Cn1ncc(/C=C/C(=O)Nc2ccc(CCc3nnco3)cc2)c1-c1ccc(F)cc1` [compound (l), (2E)-3-[5-(4-fluorophenyl)-1-methyl-1H-pyrazol-4-yl]-N-{4-[2-(1,3,4-oxadiazol-2-yl)ethyl]phenyl}acrylamide], for which the “Glycosylated hemoglobin value, after drug administration” value in assay [5] (10 mg/kg oral once a day for 20 days, control group 7.7 ± 0.2) is on record as 6.9 ± 0.4 %. In addition, the “Glycosylated hemoglobin value, amount of change” value in assay [5] (10 mg/kg oral once a day for 20 days, control group −0.5 ± 0.2) is given as −1.3 ± 0.3 %. Besides, in assay [5] (baseline before 10 mg/kg oral once a day for 20 days), the “Glycosylated hemoglobin value, before drug administration” value came to 8.2 ± 0.5%. Also, the ferrochelatase activity in assay [1] worked out at 0.655 ± 0.009 Em 590 nm. The “Cytochrome c oxidase activity” value in assay [4] (Table 6, control group 0.743 ± 0.043) is on record as 0.990 ± 0.088 units/(μg DNA.

For the origin of these results see patent US20100029724A1, “SCREENING METHOD” (Takeda Pharmaceutical Company Limited, priority 2006, published 2010).
